Measured values as given in patent publication US8889676B2, “3-ureidoisoquinolin-8-yl derivatives” (Actelion Pharmaceuticals Ltd., priority 2011, dated 2014).
Converted amounts (≈) assume the structure as drawn.

Test system: S. pneumoniae ATCC 49619
Test: Minimal inhibitory concentration (MIC) by broth microdilution (CLSI M7-A7)
Type: cell-based, Streptococcus pneumoniae
Conditions: Streptococcus pneumoniae, ATCC49619; cation-adjusted Mueller Hinton Broth supplemented with 3% (v/v) lysed horse blood; microdilution method
How it was run: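 Broth microdilution per CLSI M7-A7 in cation-adjusted Mueller-Hinton broth with 3% (v/v) lysed horse blood for S. pneumoniae. MIC in mg/l.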

- MIC: 2 µg/mL (≈ 4.95 µM)
Structure (SMILES): CCNC(=O)Nc1cc2c(-c3ccnc(C#N)c3)ccc(CNC(=O)OC)c2cn1 [Example 197, [5-(2-cyano-pyridin-4-yl)-3-(3-ethyl-ureido)-isoquinolin-8-ylmethyl]-carbamic acid methyl ester]
